This is an account of results in PMC9231011, “Irreversible Antagonists for the Adenosine A2B Receptor” (Molecules, 2022).

Positions count from the first letter of the chain named. Some results are limits rather than exact numbers.

The term Ki denotes the dissociation constant of the complex between target and ligand, obtained from inhibition or displacement. Broadly, the Kd is the free concentration of one partner at which half of the binding sites on the other are occupied at equilibrium, for simple one-to-one binding.

One assay has as its target hA3. Further details: method as in PMID 30835463, PMID 31646479. The settings on record: Figure 1; cited from earlier work.
Another assay concerns the target hA2B. The arrangement: method as in PMID 30835463, PMID 31646479. The settings on record: Figure 1; cited from earlier work.
In a further assay the target is hA1. Further details: method as in PMID 30835463, PMID 31646479. The settings on record: Figure 1; cited from earlier work.
The next assay has as its target hA2A. Further details: method as in PMID 30835463, PMID 31646479. The settings on record: Figure 1; cited from earlier work.
Another assay has as its target T1, A2BAR (Homo sapiens, UniProt P29275).
T1 sequence (P29275 1-332): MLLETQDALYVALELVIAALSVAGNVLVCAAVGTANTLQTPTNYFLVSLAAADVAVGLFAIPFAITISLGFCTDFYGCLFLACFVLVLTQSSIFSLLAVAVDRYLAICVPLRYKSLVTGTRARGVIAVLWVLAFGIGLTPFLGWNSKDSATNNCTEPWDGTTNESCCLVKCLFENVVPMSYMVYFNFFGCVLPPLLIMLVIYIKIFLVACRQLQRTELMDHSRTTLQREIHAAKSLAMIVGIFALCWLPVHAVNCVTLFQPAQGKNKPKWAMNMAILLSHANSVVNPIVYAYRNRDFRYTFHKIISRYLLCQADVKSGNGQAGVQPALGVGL
Further details: purchased Perkin Elmer ES-013-M400UA; method as in PMID 19569717. The settings on record: wt A2BAR; read-out: KD of [3H]PSB-603; cited from earlier work.

Assay [1] has as its target T2, mutant human A2BAR (K269^7.32L) (Homo sapiens, UniProt P29275, K269L).
T2 construct: expressed in transfected cells; host or cells: FreeStyle CHO-S cells, pcDNA3.1(+), transient
T2 sequence (P29275 1-332 K269L): T1 sequence (P29275 1-332) with K269L
Nature of the assay: Homologous competition binding of PSB-603 vs [3H]PSB-603 at mutant. The settings on record: K269^7.32L mutant. The method, then: The human A2AAR, the mutant human A2BAR (K269^7.32L), and the human A3AR were transiently expressed in FreeStyle^TM CHO-S cells using the transfection reagent polyethylenimine (PEI) at a ratio of 1:3 to DNA according to the manufacturer’s guideline. pcDNA3.1(+) was used as the transfection vector containing the cDNA for either the wt ARs or the K269^7.32L mutant A2BAR that was prepared by site-directed mutagenesis with the following primer: forward […], reverse […]. CHO-S cells were grown in FreeStyle^TM CHO Expression Medium supplemented with 8 mM L-glutamine before use and split to 0.5 mio. cells per mL the day before transfection. Twenty-four hours after transfection, cells were spun down by centrifugation for 15 min at 500× g. […]
Binding experiments were performed using 50 mM Tris buffer (pH 7.4) in a total volume of 400 µL for the A1AR, A2AAR, A3AR, and 1000 µL for the A2BAR. […] Non-specific binding was determined in the presence of 10 µM of 2-chloroadenosine, 10 µM of CGS 15943, 10 µM of 8-cyclopently-1,3-dipropylxanthine or 100 µM of (R)-N^6-phenylisopropyadenosine for A1-, A2A-, A2B- and A3ARs, respectively. […] Subsequently, radioactivity was determined using a liquid scintillation counter (Tricarb 2810TR, Perkin Elmer).

On to `CCn1c(=O)c2c(nc(/C=C/c3ccc(OC)c(OC)c3)n2C)n(CC)c1=O` [Istradefylline, istradefylline], for which the Ki is 4470 nM on hA3, over 10000 nM at hA2B, 841 nM on hA1 and 26.4 nM at hA2A.
For the compound `CCCn1c(=O)[nH]c2nc(-c3ccc(S(=O)(=O)N4CCN(c5ccc(Cl)cc5)CC4)cc3)[nH]c2c1=O` [PSB-603], the results for the Kd (at A2BAR; in assay [1]) were 0.553 ± 0.103 nM and 0.292 ± 0.034 nM, respectively. The Ki at hA3 was over 10000 nM; at hA2B it was 0.553 nM; at hA1, over 10000 nM; at hA2A it was over 10000 nM. In addition, in assay [1], the “KD of [3H]PSB-603” value is “did not alter”.
In the case of `CCCn1c(=O)[nH]c2nc(-c3ccc(S(=O)(=O)N4CCN(c5ccc(Br)cc5)CC4)cc3)[nH]c2c1=O` [PSB-1901], the Ki on hA3 was over 1000 nM; on hA2B it was 0.0835 nM; at hA1 it was over 1000 nM; at hA2A, over 1000 nM.
